Bridge positions count the residues as written; N and C are the ends. Square brackets hold non-standard residues; d marks the D form. Peptide text beside a SMILES is read from it. * marks the point of attachment. ξ: configuration not given here. Phe(4-COOH) = N[C@@H](Cc1ccc(C(=O)O)cc1)C(=O)O; Ala(4-thiazolyl) = N[C@@H](Cc1cscn1)C(=O)O; Bip = N[C@@H](Cc1ccc(-c2ccccc2)cc1)C(=O)O; Phe(3-Me) = Cc1cccc(C[C@H](N)C(=O)O)c1; Cyclopropanecarbonyl = O=C(C1CC1)*; aIle = CC[C@@H](C)[C@H](N)C(=O)O; Cha = N[C@@H](CC1CCCCC1)C(=O)O; Cit = NC(=O)NCCC[C@H](N)C(=O)O; Ile(3ξ) = CCC(C)[C@H](N)C(=O)O; Thr(3ξ) = CC(O)[C@H](N)C(=O)O; Ala(CN) = N#CC[C@H](N)C(=O)O; ξCha = NC(CC1CCCCC1)C(=O)O; Carboxymethyl = O=C(O)C*; NMeA = CN[C@@H](C)C(=O)O; Orn = NCCC[C@H](N)C(=O)O; Dab = NCC[C@H](N)C(=O)O; Dap = NC[C@H](N)C(=O)O; ξL = CC(C)CC(N)C(=O)O; ξV = CC(C)C(N)C(=O)O
molecular target: T1, PE-labeled human PD-L1-Ig binding to Jurkat cell line over-expressing human PD-1 (Jurkat-PD-1) (Homo sapiens, UniProt Q15116); assay: Jurkat-PD-1 Cell Binding High-Content Screening Assay (CBA): Method 1; conditions: Jurkat-hPD-1 cells, PE-labeled PD-L1-Ig 20 nM final; read-out: Jurkat HPDL1 PD1 IC50 (uM) (Method 1)
T1 construct: expressed in transfected cells; host or cells: Jurkat
T1 sequence (Q15116 25-288): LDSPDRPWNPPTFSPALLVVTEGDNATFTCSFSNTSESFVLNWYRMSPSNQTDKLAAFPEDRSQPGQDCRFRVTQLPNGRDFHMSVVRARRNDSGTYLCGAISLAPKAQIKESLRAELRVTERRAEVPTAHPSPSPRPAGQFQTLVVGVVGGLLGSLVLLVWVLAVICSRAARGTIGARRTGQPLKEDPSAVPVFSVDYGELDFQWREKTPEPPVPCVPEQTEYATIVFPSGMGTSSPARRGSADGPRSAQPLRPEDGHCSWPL

Row | Structure (SMILES) | IC50
1 | CC[C@@H](C)[C@@H]1NC(=O)[C@H](Cc2ccc(-c3ccccc3)cc2)NC(=O)[C@H](CC(C)C)NC(=O)[C@H](Cc2c[nH]c3ccccc23)NC(=O)[C@H](CC(=O)O)NC(=O)[C@H](Cc2ccc(C(=O)O)cc2)NC(=O)[C@H](Cc2ccc(OCC(=O)O)cc2)NC(=O)CSC[C@@H](C(=O)N[C@@H](CCCCN)C(N)=O)NC(=O)[C@H](CC(=O)O)NC(=O)C(C(C)C)NC(=O)[C@H](CC(C)C)NC(=O)[C@H](CC(N)=O)NC(=O)[C@@H](CC(C)C)NC(=O)[C@H](C)N(C)C1=O (stereo partly drawn) [Compound 2105] ({CH2CO}-Y(Carboxymethyl)[Phe(4-COOH)]DWL[Bip][aIle][NMeA][dL]NL[ξV]DCK-NH2; thioether N-14) | 0.1 µM
2 | CC[C@@H](C)[C@@H]1NC(=O)[C@H](Cc2ccc(-c3ccccc3)cc2)NC(=O)[C@H](CC(C)C)NC(=O)[C@H](Cc2c[nH]c3ccccc23)NC(=O)[C@H](CC(=O)O)NC(=O)[C@H](Cc2ccc(C(=O)O)cc2)NC(=O)[C@H](Cc2ccc(OCC(=O)O)cc2)NC(=O)CSC[C@@H](C(=O)N[C@@H](CCCCN)C(N)=O)NC(=O)[C@H](CC#N)NC(=O)C(C(C)C)NC(=O)[C@H](CC(C)C)NC(=O)[C@H](CC(N)=O)NC(=O)[C@@H](CC(C)C)NC(=O)[C@H](C)N(C)C1=O (stereo partly drawn) [Compound 2106] ({CH2CO}-Y(Carboxymethyl)[Phe(4-COOH)]DWL[Bip][aIle][NMeA][dL]NL[ξV][Ala(CN)]CK-NH2; thioether N-14) | 0.06 µM
3 | CC[C@@H](C)[C@@H]1NC(=O)[C@H](Cc2ccc(-c3ccccc3)cc2)NC(=O)[C@H](CC(C)C)NC(=O)[C@H](Cc2c[nH]c3ccccc23)NC(=O)[C@H](CC(=O)O)NC(=O)[C@H](Cc2ccc(C(=O)O)cc2)NC(=O)[C@H](Cc2ccc(OCC(=O)O)cc2)NC(=O)CSC[C@@H](C(=O)N[C@@H](CCCCN)C(N)=O)NC(=O)[C@H](Cc2cscn2)NC(=O)C(C(C)C)NC(=O)[C@H](CC(C)C)NC(=O)[C@H](CC(N)=O)NC(=O)[C@@H](CC(C)C)NC(=O)[C@H](C)N(C)C1=O (stereo partly drawn) [Compound 2107] ({CH2CO}-Y(Carboxymethyl)[Phe(4-COOH)]DWL[Bip][aIle][NMeA][dL]NL[ξV][Ala(4-thiazolyl)]CK-NH2; thioether N-14) | 0.24 µM
4 | Cc1cccc(C[C@@H]2NC(=O)[C@H](CC(=O)O)NC(=O)[C@H](Cc3ccc(OCC(=O)O)cc3)NC(=O)[C@H](CCCNC(=O)C3CC3)NC(=O)CSC[C@@H](C(=O)N[C@@H](CO)C(N)=O)NC(=O)[C@H](CO)NC(=O)[C@H](C(C)O)NC(=O)C(CC3CCCCC3)NC(=O)[C@H](CCCNC(=N)N)NC(=O)[C@@H](CC(C)C)NC(=O)[C@H](C)N(C)C(=O)[C@H](CCCNC(N)=O)NC(=O)[C@H](Cc3ccc(-c4ccccc4)cc3)NC(=O)[C@H](C(C)C)NC2=O)c1 (stereo partly drawn) [Compound 2113] ({CH2CO}-[Orn](Cyclopropanecarbonyl)Y(Carboxymethyl)D[Phe(3-Me)]V[Bip][Cit][NMeA][dL]R[ξCha][Thr(3ξ)]SCS-NH2; thioether N-14) | 0.02 µM
5 | CCC(C)[C@@H]1NC(=O)[C@H](Cc2ccc(-c3ccccc3)cc2)NC(=O)[C@H](C(C)C)NC(=O)[C@H](Cc2c[nH]c3ccccc23)NC(=O)[C@H](CC(=O)O)NC(=O)[C@H](Cc2ccc(OCC(=O)O)cc2)NC(=O)[C@H](C(C)O)NC(=O)CSC[C@@H](C(=O)N[C@@H](CCN)C(N)=O)NC(=O)[C@H](C(C)O)NC(=O)[C@H](C(C)C)NC(=O)[C@H](CC2CCCCC2)NC(=O)[C@H](CCN)NC(=O)C(CC(C)C)NC(=O)[C@H](C)N(C)C1=O (stereo partly shown) [Compound 2114] ({CH2CO}-[Thr(3ξ)]Y(Carboxymethyl)DWV[Bip][Ile(3ξ)][NMeA][ξL][Dab][Cha]V[Thr(3ξ)]C[Dab]-NH2; thioether N-14) | 0.02 µM
6 | Cc1cccc(C[C@@H]2NC(=O)[C@H](CC(=O)O)NC(=O)[C@H](Cc3ccc(OCC(=O)O)cc3)NC(=O)[C@H](C(C)O)NC(=O)CSC[C@@H](C(=O)N[C@@H](CCN)C(N)=O)NC(=O)[C@H](C(C)O)NC(=O)[C@H](C(C)C)NC(=O)[C@H](CC3CCCCC3)NC(=O)[C@H](CCN)NC(=O)[C@@H](CC(C)C)NC(=O)[C@H](C)N(C)C(=O)[C@H](Cc3ccc(OCC(=O)O)cc3)NC(=O)[C@H](Cc3ccc(-c4ccccc4)cc3)NC(=O)[C@H](Cc3ccc(C(=O)O)cc3)NC2=O)c1 (stereo partly drawn) [Compound 2115] ({CH2CO}-[Thr(3ξ)]Y(Carboxymethyl)D[Phe(3-Me)][Phe(4-COOH)][Bip]Y(Carboxymethyl)[NMeA][dL][Dab][Cha]V[Thr(3ξ)]C[Dab]-NH2; thioether N-14) | 0.01 µM

Now from value to compound:

Row | IC50 | Structure (SMILES)
7 | 0.11 µM | CC[C@@H](C)[C@@H]1NC(=O)[C@H](Cc2ccc(-c3ccccc3)cc2)NC(=O)[C@H](CC(C)C)NC(=O)[C@H](Cc2c[nH]c3ccccc23)NC(=O)[C@H](CC(=O)O)NC(=O)[C@H](Cc2ccc(C(=O)O)cc2)NC(=O)[C@H](Cc2ccc(OCC(=O)O)cc2)NC(=O)CSC[C@@H](C(=O)N[C@@H](CCCCN)C(N)=O)NC(=O)[C@H](CN)NC(=O)C(C(C)C)NC(=O)[C@H](CC(C)C)NC(=O)[C@H](CC(N)=O)NC(=O)[C@@H](CC(C)C)NC(=O)[C@H](C)N(C)C1=O (stereo partly drawn) [Compound 2108] ({CH2CO}-Y(Carboxymethyl)[Phe(4-COOH)]DWL[Bip][aIle][NMeA][dL]NL[ξV][Dap]CK-NH2; thioether N-14)
8 | 0.2 µM | CC[C@@H](C)[C@@H]1NC(=O)[C@H](Cc2ccc(-c3ccccc3)cc2)NC(=O)[C@H](CC(C)C)NC(=O)[C@H](Cc2c[nH]c3ccccc23)NC(=O)[C@H](CC(=O)O)NC(=O)[C@H](Cc2ccc(C(=O)O)cc2)NC(=O)[C@H](Cc2ccc(OCC(=O)O)cc2)NC(=O)CSC[C@@H](C(=O)N[C@@H](CCCCN)C(N)=O)NC(=O)[C@H](CC(N)=O)NC(=O)C(C(C)C)NC(=O)[C@H](CC(C)C)NC(=O)[C@H](CC(N)=O)NC(=O)[C@@H](CC(C)C)NC(=O)[C@H](C)N(C)C1=O (stereo partly drawn) [Compound 2109] ({CH2CO}-Y(Carboxymethyl)[Phe(4-COOH)]DWL[Bip][aIle][NMeA][dL]NL[ξV]NCK-NH2; thioether N-14)
9 | 0.01 µM | Cc1cccc(C[C@@H]2NC(=O)[C@H](CC(=O)O)NC(=O)[C@H](Cc3ccc(C(=O)O)cc3)NC(=O)[C@H](Cc3ccc(OCC(=O)O)cc3)NC(=O)CSC[C@@H](C(=O)N[C@@H](CO)C(N)=O)NC(=O)[C@H](CO)NC(=O)[C@H](C(C)C)NC(=O)[C@H](CC(C)C)NC(=O)[C@H](CCN)NC(=O)[C@@H](CC(C)C)NC(=O)[C@H](C)N(C)C(=O)[C@H](C(C)C)NC(=O)[C@H](Cc3ccc(-c4ccccc4)cc3)NC(=O)[C@H](CC(C)C)NC2=O)c1 [Compound 2111] ({CH2CO}-Y(Carboxymethyl)[Phe(4-COOH)]D[Phe(3-Me)]L[Bip]V[NMeA][dL][Dab]LVSCS-NH2; thioether N-14)
10 | 0.02 µM | Cc1cccc(C[C@@H]2NC(=O)[C@H](CC(=O)O)NC(=O)[C@H](Cc3ccc(C(=O)O)cc3)NC(=O)[C@H](Cc3ccc(OCC(=O)O)cc3)NC(=O)CSC[C@@H](C(=O)N[C@H](CC(N)=O)C(N)=O)NC(=O)[C@H](CO)NC(=O)[C@H](C(C)C)NC(=O)[C@H](CC(C)C)NC(=O)[C@H](CCN)NC(=O)[C@@H](CC(C)C)NC(=O)[C@H](C)N(C)C(=O)[C@H](C(C)C)NC(=O)[C@H](Cc3ccc(-c4ccccc4)cc3)NC(=O)[C@H](CC(C)C)NC2=O)c1 [Compound 2112] ({CH2CO}-Y(Carboxymethyl)[Phe(4-COOH)]D[Phe(3-Me)]L[Bip]V[NMeA][dL][Dab]LVSC[dN]-NH2; thioether N-14)
